According to publication PMC5023282, “A rapid fluorometric assay for the S-malonyltransacylase FabD and other sulfhydryl utilizing enzymes” (Journal of Biological Methods, 2016):

Biological target: T1, FabD (malonyl-coenzyme A transacylase; malonyl-CoA:ACP transacylase) (Escherichia coli, UniProt P0AAI9)
T1 construct: full ORF in pET28b (NcoI/EcoRI), one extra N-terminal glycine, no His tag; expressed in E. coli BL21* DE3
Assay: CPM fluorescence detection of CoA-SH after TCA precipitation of holo-ACP, initial rates
Assay type: biochemical
Conditions: holo-ACP 125 µM; 25 mM MOPS, 100 mM NaCl, 1 mg/ml BSA, pH 7.1, 30°C
Source text: CPM fluorescence detection of CoA-SH after TCA precipitation of holo-ACP, initial rates on FabD (malonyl-coenzyme A transacylase; malonyl-CoA:ACP transacylase)

T1 sequence (P0AAI9 2-309): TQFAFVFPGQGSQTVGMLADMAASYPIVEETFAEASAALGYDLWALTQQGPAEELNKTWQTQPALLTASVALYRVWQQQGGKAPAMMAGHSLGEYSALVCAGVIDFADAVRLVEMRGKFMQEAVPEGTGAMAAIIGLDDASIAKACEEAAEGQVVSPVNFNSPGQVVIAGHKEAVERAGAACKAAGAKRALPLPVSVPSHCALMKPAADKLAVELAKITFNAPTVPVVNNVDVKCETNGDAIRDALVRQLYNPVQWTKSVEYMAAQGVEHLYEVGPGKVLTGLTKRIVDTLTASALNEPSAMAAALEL

Km: 60 ± 20 µM
SMILES: CC(C)(COP(=O)(O)OP(=O)(O)OC[C@H]1O[C@@H](n2cnc3c(N)ncnc32)[C@H](O)[C@@H]1OP(=O)(O)O)[C@@H](O)C(=O)NCCC(=O)NCCSC(=O)CC(=O)O [malonyl-CoA]
